Reference: US7141569B2, “Antiviral pyrazolopyridine compounds” (SmithKline Beecham Corporation, priority 2001, dated 2006)

These compounds were tested on HSV-1 (assay: HSV-1 infection of Vero 76 cells, viral DNA detected by hybridization capture (chemiluminescence)). Details: Human alphaherpesvirus 1; HSV-1 in Vero 76 cells, MOI=0.001, compounds incubated 40–48 hours at 37° C.
Type: cell-based
Experimental: Vero 76 cells were maintained in MEM with Earle's salts, L-glutamine, 8% FBS (Hyclone, A-1111-L) and 100 units/mL Penicillin-100 μg/mL Streptomycin. For assay conditions, FBS was reduced to 2%. Cells are seeded into 96-well tissue culture plates at a density of 5×10^4 cells/well after being incubated for 45 min at 37° C. in the presence of HSV-1 or HSV-2 (MOI=0.001). Test compounds are added to the wells and the plates are incubated at 37° C. for 40–48 hours. Cell lysates are prepared as follows: media was removed and replaced with 150 μL/well 0.2 N NaOH with 1% Igepal CA 630 or NP-40. Plates were incubated up to 14 days at room temperature in a humidified chamber to prevent evaporation.
For the detection probe, a gel-purified, digoxigenin-labeled, 710-bp PCR fragment of the HSV UL-15 sequence was utilized. PCR conditions included 0.5 μM primers, 180 μM dTTP, 20 μM dUTP-digoxigenin (Boehringer Mannheim 1558706), 200 μM each of dATP, dCTP, and dGTP, 1×PCR Buffer II (Perkin Elmer), 2.5 mM MgCl2, 0.025 units/μL of AmpliTaq Gold polymerase (Perkin Elmer), and 5 ng of gel-purified HSV DNA per 100 μL Extension conditions were 10 min at 95° C., followed by 30 cycles of 95° C. for 1 min, 55° C. for 30 sec. and 72° C. for 2 min. The amplification was completed with a 10-min incubation at 72° C. Primers were selected to amplify a 728 bp probe spanning a section of the HSV1 UL15 open reading frame (nucleotides 249–977). Single-stranded transcripts were purified with Promega M13 Wizard kits. The final product was mixed 1:1 with a mixture of 6 M GuSCN, 100 mM EDTA and 200 μg/mL herring sperm DNA and stored at 4° C.
The capture DNA plasmid (HSV UL13 region in pUC) was linearized by cutting with Xba I, denatured for 15 min at 95° C. and diluted immediately into Reacti-Bind DNA Coating Solution (Pierce, 17250, diluted 1:1 with TE buffer, pH 8) at 1 ng/μL 75 μL/well were added to Corning (#3922 or 9690) white 96-well plates and incubated at room temperature for at least 4 hrs before washing twice with 300 μL/well 0.2×SSC/0.05% Tween-20 (SSC/T buffer). The plates were then incubated overnight at room temperature with 150 μL/well 0.2 N NaOH, 1% IGEPAL and 10 μg/mL herring sperm DNA.
Twenty-seven (27) μL of lysate was combined with 45 μL of hybridization solution (final concentration: 3M GuSCN, 50 mM EDTA, 100 μg/ml salmon sperm DNA, 5×Denhardt's solution, 0.25×APE, and 5 ng of the digoxigenin-labeled detection probe). APE is 1.5 M NH4-acetate, 0.15 M NH4H2 phosphate, and 5 mM EDTA adjusted to pH 6.0 Mineral oil (50 μL) was added to prevent evaporation. The hybridization plates were incubated at 95° C. for 10 minutes to denature the DNA, then incubated at 42° C. overnight. The wells were washed 6× with 300 μl/well SSC/T buffer then incubated with 75 μL/well anti-digoxigenin-HRP-conjugated antibody (Boehringer Mannheim 1207733, 1:5000 in TE) for 30 min at room temperature. The wells were washed 6× with 300 μL/well with PBS/0.05% Tween-20 before 75 μL/well SuperSignal LBA substrate (Pierce) was added. The plates were incubated at room temperature for 30 minutes and chemiluminescence was measured in a Wallac Victor reader.

| SMILES | IC50 [nM] |
| --- | --- |
| Nc1ccn2nc(-c3ccc(F)cc3)c(-c3ccnc(NC4CCCC4)n3)c2c1 [Example 3, 3-[2-(Cyclopentylamino)-4-pyrimidinyl]2-(4-fluorophenyl)pyrazolo[1,5-α]pyridin-5-amine] | 5000 |
| CS(=O)(=O)Nc1ccn2nc(-c3ccc(F)cc3)c(-c3ccnc(NC4CCCC4)n3)c2c1 [Example 4, N-[3-[2-(Cyclopentylamino)-4-pyrimidinyl]-2-(4-fluorophenyl)pyrazolo[1,5-α]pyridin-5-yl]methanesulfonamide] | 2000 |
| CC(C)Nc1ccn2nc(-c3ccc(F)cc3)c(-c3ccnc(NC4CCCC4)n3)c2c1 [Example 9, 3-[2-(Cyclopentylamino)-4-pyrimidinyl]-2-(4-fluorophenyl)-N-isopropylpyrazolo[1,5-α]pyridin-5-amine] | 2900 |
| Fc1ccc(-c2nn3ccc(NC4CCCC4)c(Br)c3c2-c2ccnc(NC3CCCC3)n2)cc1 [Example 13, 4Bromo-N-cyclopentyl-3-[2-(cyclopentylamino)pyrimidin-4-yl]-2-(4-fluorophenyl)pyrazolo[1,5-α]pyridin-5-amine] | 3000 |
| Fc1ccc(-c2nn3ccc(NC4CCCC4)c(Cl)c3c2-c2ccnc(NC3CCCC3)n2)cc1 [Example 14, 4-Chloro-N-cyclopentyl-3-[2-(cyclopentylamino)pyrimidin-4-yl]-2-(4-fluorophenyl)pyrazolo[1,5-α]pyridin-5-amine] | 1900 |
| COc1ccc(-c2nn3ccc(NC4CCCC4)c(Br)c3c2-c2ccnc(NC3CCCC3)n2)cc1 [Example 15, 4-Bromo-N-cyclopentyl-3-[2-(cyclopentylamino)pyrimidin-4-yl]-2-(4-methoxyphenyl)pyrazolo[1,5-α]pyridin-5-amine] | 3500 |
| COc1ccc(-c2nn3ccc(NC4CCCC4)c(Cl)c3c2-c2ccnc(NC3CCCC3)n2)cc1 [Example 16, 4-Chloro-N-cyclopentyl-3-[2-(cyclopentylamino)pyrimidin-4-yl]-2-(4-methoxyphenyl)pyrazolo[1,5-α]pyridin-5-amine] | 2800 |
| CCCCNc1cc(-c2c(-c3ccc(F)cc3)nn3cccc(NCCCC)c23)ccn1 [Example 17, N-Butyl-3-[2-(butylamino)pyridin-4-yl]-2-(4-fluorophenyl)pyrazolo[1,5-α]pyridin-4-amine] | 2500 |
| Oc1ccc(-c2nn3ccc(NC4CCCC4)cc3c2-c2ccnc(NC3CCCC3)n2)cc1 [Example 18, 4-{5-(Cyclopentylamino)-3-[2-(cyclopentylamino)-4-pyrimidinyl]pyrazolo[1,5-α]pyridin-2-yl}phenol] | 1200 |
| CC(C)COc1ccc(-c2nn3ccc(NC4CCCC4)cc3c2-c2ccnc(NC3CCCC3)n2)cc1 [Example 19, N-Cyclopentyl-3-[2-(cyclopentylamino)-4-pyrimidinyl]-2-(4-isobutoxyphenyl)pyrazolo[1,5-α]pyridin-5-amine] | 500 |

The next lines start with the values.

| IC50 [nM] | SMILES |
| --- | --- |
| 500 | Fc1ccc(-c2nn3ccc(NC4CCCC4)cc3c2-c2ccnc(NC3CCCC3)n2)cc1 [Example 2, N-Cyclopentyl-3-[2-(cyclopentylamino)-4-pyrimidinyl]-2-(4-fluorophenyl)pyrazolo[1,5-α]pyridin-5-amine] |
| 240 | Nc1ccc2c(-c3ccnc(NC4CCCC4)n3)c(-c3ccc(F)cc3)nn2c1 [Example 5, 3-[2-(cyclopentylamino)-4-pyrimidinyl]-2-(4-fluorophenyl)pyrazolo[1,5-α]pyridin-6-amine] |
| 1000 | Fc1ccc(-c2nn3cc(NC4CCCC4)ccc3c2-c2ccnc(NC3CCCC3)n2)cc1 [Example 6, N-Cyclopentyl-3-[2-(cyclopentylamino)-4-pyrimidinyl]-2-(4-fluorophenyl)pyrazolo[1,5-α]pyridin-6-amine] |
| 1200 | CC(C)Nc1ccc2c(-c3ccnc(NC4CCCC4)n3)c(-c3ccc(F)cc3)nn2c1 [Example 7, 3-[2-(Cyclopentylamino)-4-pyrimidinyl]-2-(4-fluorophenyl)-N-isopropylpyrazolo[1,5-α]pyridin-6-amine] |
| 1000 | COCCNc1ccn2nc(-c3ccc(F)cc3)c(-c3ccnc(NC4CCCC4)n3)c2c1 [Example 8, 3-[2-(Cyclopentylamino)-4-pyrimidinyl]-2-(4-fluorophenyl)-N-(2-methoxyethyl)pyrazolo[1,5-α]pyridin-5-amine] |
| 200 | COc1ccc(-c2nn3ccc(NC4CCCC4)cc3c2-c2ccnc(NC3CCCC3)n2)cc1 [Example 10, N-Cyclopentyl-3-[2-(cyclopentylamino)-4-pyrimidinyl]-2-(4-methoxyphenyl)-pyrazolo[1,5-α]pyridin-5-amine] |
| 800 | COc1ccc(-c2nn3ccc(NC(C)C)cc3c2-c2ccnc(NC3CCCC3)n2)cc1 [Example 12, 3-[2-(Cyclopentylamino)-4-pyrimidinyl]-N-isopropyl-2-(4-methoxyphenyl)pyrazolo[1,5-α]pyridin-5-amine] |
| 300 | c1cc(-c2c(-c3ccc(OCC4CC4)cc3)nn3ccc(NC4CCCC4)cc23)nc(NC2CCCC2)n1 [Example 20, N-Cyclopentyl-3-[2-(cyclopentylamino)-4-pyrimidinyl]-2-[4-(cyclopropylmethoxy)phenyl]pyrazolo[1,5-α]pyridin-5-amine] |
